Source: US8754071B2 (priority 2011, dated 2014)
Where two headings read alike, the source gives them in different places.

Biological target: T1, c-kit (Homo sapiens, UniProt P10721)
T1 construct: human Mo7e cells which endogenously express c-kit; endogenous in cells; host or cells: human Mo7e cells (promegakaryocytic leukemia line), stimulated with human recombinant SCF
Test: Mo7e cell proliferation assay (SCF dependent proliferation)
Format: cell-based
Conditions: Table 2, read-out: c-kit (Mo7e)
Summary of the method: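 Human Mo7e cells with endogenous c-kit, proliferation driven by SCF, 384-well format. After 48 h at 37 °C viability read by CellTiter-Glo luminescence. IC50 taken as concentration giving response halfway between baseline and maximum.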

[1] = human Mo7e cells stimulated with SCF, 48 hours, CellTiter Glo, 1% FBS
[2] = values marked *: 20% FBS instead of 1% FBS

T1 sequence (P10721 26-976): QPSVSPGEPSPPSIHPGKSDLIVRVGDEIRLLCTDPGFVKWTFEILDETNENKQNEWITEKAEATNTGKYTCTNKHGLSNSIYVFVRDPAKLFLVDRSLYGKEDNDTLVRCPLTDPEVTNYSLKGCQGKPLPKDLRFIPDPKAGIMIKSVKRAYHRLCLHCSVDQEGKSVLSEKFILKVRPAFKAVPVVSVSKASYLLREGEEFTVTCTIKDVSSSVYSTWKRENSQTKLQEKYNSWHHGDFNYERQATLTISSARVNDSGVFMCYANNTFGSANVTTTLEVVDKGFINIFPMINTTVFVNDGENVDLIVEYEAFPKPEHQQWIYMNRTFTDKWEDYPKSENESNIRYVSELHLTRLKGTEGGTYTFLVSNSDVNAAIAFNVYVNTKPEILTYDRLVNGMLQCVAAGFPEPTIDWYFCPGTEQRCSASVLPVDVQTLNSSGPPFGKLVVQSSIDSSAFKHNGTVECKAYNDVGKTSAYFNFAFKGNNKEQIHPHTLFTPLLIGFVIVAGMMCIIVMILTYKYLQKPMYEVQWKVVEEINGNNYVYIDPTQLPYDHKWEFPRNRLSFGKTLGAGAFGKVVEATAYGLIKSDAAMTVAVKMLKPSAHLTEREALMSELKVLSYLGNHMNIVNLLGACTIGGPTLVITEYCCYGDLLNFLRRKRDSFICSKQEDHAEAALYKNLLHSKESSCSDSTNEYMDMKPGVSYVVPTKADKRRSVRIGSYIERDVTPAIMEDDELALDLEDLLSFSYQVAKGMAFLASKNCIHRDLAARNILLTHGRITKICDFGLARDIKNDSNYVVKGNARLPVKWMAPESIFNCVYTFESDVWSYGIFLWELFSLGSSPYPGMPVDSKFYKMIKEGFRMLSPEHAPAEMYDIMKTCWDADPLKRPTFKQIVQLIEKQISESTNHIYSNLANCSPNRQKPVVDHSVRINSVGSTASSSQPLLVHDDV

Compound	IC50 [1]	IC50 [2]
Cc1ccc(-c2noc([C@H]3C[C@@H](O)CN3S(C)(=O)=O)n2)cc1NC(=O)c1cnc2ccc(F)cn12 [F273]	1170 nM	–
Cc1ccc(-c2noc(C3CCCNC3)n2)cc1NC(=O)c1cnc2ccccn12 (centres unmarked) [F274]	1200 nM	–
CC(=O)N1CCOC[C@H]1c1nc(-c2ccc(C)c(NC(=O)c3cnc4ccccn34)c2)no1 [F275]	1230 nM	–
Cc1ccc(-c2noc([C@@H]3COCCN3)n2)cc1NC(=O)c1cnc2ccccn12 [F276]	1240 nM	–
Cc1ccc(-c2noc(C3CN(C(=O)OC(C)(C)C)CCO3)n2)cc1NC(=O)c1cnc2ccccn12 (centres unmarked) [F277]	1250 nM	–
Cc1ccc(-c2noc([C@H]3CCCN3C(=O)OC(C)(C)C)n2)cc1NC(=O)c1cnc2ccccn12 [F278]	1280 nM	–
Cc1cc(F)c(-c2noc(C3CN(C(=O)OC(C)(C)C)C3)n2)cc1NC(=O)c1cnc2ccccn12 [F279]	1280 nM	–
Cc1ccc2ncc(C(=O)Nc3cc(-c4noc([C@@H]5CCN5)n4)ccc3C)n2c1 [F280]	1310 nM	–
Cc1ccn2c(C(=O)Nc3cc(-c4noc(N5CC(S(C)(=O)=O)C5)n4)ccc3C)cnc2c1 [F281]	1370 nM	–
Cc1ccc(-c2noc(C3CCCN(C(=O)OC(C)(C)C)C3)n2)cc1NC(=O)c1cnc2ccccn12 (centres unmarked) [F282]	–	1600 nM
Cc1ccc(-c2noc(CC3CN(C(=O)OC(C)(C)C)C3)n2)cc1NC(=O)c1cnc2ccccn12 [F283]	1630 nM	–
Cc1ccc(-c2noc(C[C@H]3CCNC3)n2)cc1NC(=O)c1cnc2ccccn12 [F284]	1650 nM	–
Cc1ccc(-c2noc(C3CCCNC3)n2)cc1NC(=O)c1cnc2ccccn12 (centres unmarked) [F285]	1670 nM	–
Cc1ccc(-c2noc(C3(N)COC3)n2)cc1NC(=O)c1cnc2ccccn12 [F286]	1680 nM	–
Cc1ccc(-c2noc([C@@H]3C[C@H](O)CN3S(C)(=O)=O)n2)cc1NC(=O)c1cnc2ccc(F)cn12 [F287]	1680 nM	–
Cc1ccc(-c2noc(C3CCCCN3C(=O)OC(C)(C)C)n2)cc1NC(=O)c1cnc2ccccn12 (centres unmarked) [F288]	–	1780 nM
Cc1ccc(-c2noc(CC3CCNCC3)n2)cc1NC(=O)c1cnc2ccccn12 [F289]	1880 nM	–
Cc1ccc(-c2noc(C3CCNCC3)n2)cc1NC(=O)c1cnc2ccccn12 [F290]	1890 nM	–
Cc1ccc(-c2noc(CN3CC(S(C)(=O)=O)C3)n2)cc1NC(=O)c1cnc2ccccn12 [F291]	1920 nM	–

Compound	IC50 [1]	IC50 [2]
Cc1ccc(-c2noc(CNC(=O)N3CCOCC3)n2)cc1NC(=O)c1cnc2ccccn12 [F292]	1930 nM	–
Cc1ccc2ncc(C(=O)Nc3cc(-c4noc(COC5CNC5)n4)ccc3C)n2c1 [F293]	2150 nM	–
Cc1ccc(-c2nc(N3CC4(COC4)C3)no2)cc1NC(=O)c1cnc2ccccn12 [F294]	2200 nM	–
Cc1ccc(-c2noc(CC3CNC3)n2)cc1NC(=O)c1cnc2ccccn12 [F295]	2200 nM	–
Cc1ccc(-c2noc(C3CCNC3)n2)cc1NC(=O)c1cnc2ccccn12 (centres unmarked) [F296]	2440 nM	–
Cc1ccc(-c2noc([C@@H]3CCCO3)n2)cc1NC(=O)c1cnc2ccccn12 [F297]	2790 nM	–
Cc1ccc(-c2noc(C3CNC3)n2)cc1NC(=O)c1cnc2ccccn12 [F298]	2860 nM	–
Cc1ccc(-c2noc(C3CN(S(=O)(=O)c4c[nH]cn4)C3)n2)cc1NC(=O)c1cnc2ccccn12 [F299]	3520 nM	–
Cc1ccc(-c2nc(C3CN(C(=O)OC(C)(C)C)C3)no2)cc1NC(=O)c1cnc2ccccn12 [F300]	3560 nM	–
Cc1ccc(-c2noc(C3CN(S(=O)(=O)c4cn(C)cn4)C3)n2)cc1NC(=O)c1cnc2ccccn12 [F301]	3970 nM	–
Cc1ccc(-c2noc([C@H]3C[C@@H](O)CN3)n2)cc1NC(=O)c1cnc2ccc(F)cn12 [F302]	4330 nM	–
Cc1ccc(-c2noc(CCC(=O)N3CCN(C)CC3)n2)cc1NC(=O)c1cnc2ccccn12 [F303]	4640 nM	–
Cc1ccc(-c2noc(CC3CCNC3)n2)cc1NC(=O)c1cnc2ccccn12 (centres unmarked) [F304]	5230 nM	–
Cc1ccc(-c2noc(C3C[C@@H](O)CN3)n2)cc1NC(=O)c1cnc2ccc(F)cn12 (some centres unmarked) [F305]	8080 nM	–
Cc1ccc(-c2noc(C3C[C@H](O)CN3)n2)cc1NC(=O)c1cnc2ccc(F)cn12 (some centres unmarked) [F306]	8370 nM	–
COC(=O)N1CC(c2nc(-c3ccc(C)c(NC(=O)c4cnc5ccc(CCC(=O)O)cn45)c3)no2)C1 [F307]	> 10000 nM	–
COC(=O)N1CC(c2nc(-c3ccc(C)c(NC(=O)c4cnc5ccc(CCc6nn[nH]n6)cn45)c3)no2)C1 [F308]	> 10000 nM	–
COC(=O)CS(=O)(=O)N1CC(c2nc(-c3ccc(C)c(NC(=O)c4cnc5ccccn45)c3)no2)C1 [F309]	> 10000 nM	–
COC(=O)N1CC(c2nc(-c3ccc(C)c(NC(=O)c4cnc5ccc(CCCc6nn[nH]n6)cn45)c3)no2)C1 [F310]	> 10000 nM	–

The remaining lines, values ahead:

IC50 [1]	IC50 [2]	Compound
831 nM	–	Cc1ccc(-c2noc(C3(C)CN(C(=O)OC(C)(C)C)C3)n2)cc1NC(=O)c1cnc2ccccn12 [F239]
249 nM	–	COC(=O)N1CC(C)(c2nc(-c3ccc(C)c(NC(=O)c4cnc5ccccn45)c3)no2)C1 [F240]
115 nM	–	COC(=O)N1CC(c2nc(-c3ccc(C)c(NC(=O)c4cnc5ccc(CCC(=O)OC(C)(C)C)cn45)c3)no2)C1 [F241]
812 nM	–	COC(=O)N1CC(c2nc(-c3ccc(C)c(NC(=O)c4cnc5c(F)cccn45)c3)no2)C1 [F242]
310 nM	–	Cc1ccc(-c2noc(C3CN(c4cnccn4)C3)n2)cc1NC(=O)c1cnc2ccccn12 [F243]
176 nM	–	Cc1nc(N2CC(c3nc(-c4ccc(C)c(NC(=O)c5cnc6ccccn56)c4)no3)C2)no1 [F244]
178 nM	–	COC(=O)N1CC(c2nc(-c3ccc(C)c(NC(=O)c4cnc5ccc(C(C)=O)cn45)c3)no2)C1 [F245]
317 nM	–	COC(=O)N1CC(c2nc(-c3ccc(C)c(NC(=O)c4cnc5ccc(C(C)(C)O)cn45)c3)no2)C1 [F246]
328 nM	–	COC(=O)N1CC(c2nc(-c3ccc(C)c(NC(=O)c4cnc5ccc(CC(C)(C)O)cn45)c3)no2)C1 [F247]
132 nM	–	Cc1ccc(-c2noc(N3CCC3)n2)cc1NC(=O)c1cnc2ccccn12 [F248]
426 nM	–	COC(=O)N1CC(c2nc(-c3ccc(C)c(NC(=O)c4cnc5ccccn45)c3C)no2)C1 [F249]
114 nM	–	COC(=O)N1CC(c2nc(-c3ccc(C)c(NC(=O)c4cnc5cc(N6CCOC6=O)ccn45)c3)no2)C1 [F250]
157 nM	–	Cc1ccc(-c2nc(N3CC(C)(O)C3)no2)cc1NC(=O)c1cnc2ccccn12 [F251]
421 nM	–	COC(=O)N1CC(c2nc(-c3ccc(C)c(NC(=O)c4cnc5ccc(-n6ccnc6)cn45)c3)no2)C1 [F252]
215 nM	–	COCc1n[nH]c(-c2ccc3ncc(C(=O)Nc4cc(-c5noc(C6CN(C(=O)OC)C6)n5)ccc4C)n3c2)n1 [F253]
111 nM	–	COC1CN(c2nc(-c3ccc(C)c(NC(=O)c4cnc5cc(C)ccn45)c3)no2)C1 [F254]
129 nM	–	Cc1ccn2c(C(=O)Nc3cc(-c4noc(N5CCN6C(=O)OC[C@@H]6C5)n4)ccc3C)cnc2c1 [F255]
106 nM	–	Cc1ccc(-c2noc(CN3CC(C#N)C3)n2)cc1NC(=O)c1cnc2ccc(-c3cnn(C)c3)cn12 [F256]
177 nM	–	Cc1ccc(-c2noc(C3CN(C(=O)OCC(F)F)C3)n2)cc1NC(=O)c1cnc2ccccn12 [F259]
205 nM	–	Cc1ccc2ncc(C(=O)Nc3cc(-c4noc(COC5COC5)n4)ccc3C)n2c1 [F260]
291 nM	–	Cc1ccc2ncc(C(=O)Nc3cc(-c4noc(C5CCN5C(=O)OC(C)(C)C)n4)ccc3C)n2c1 (centres unmarked) [F261]
309 nM	–	COC(=O)N1CC[C@H]1c1nc(-c2ccc(C)c(NC(=O)c3cnc4ccc(C)cn34)c2)no1 [F262]
350 nM	–	Cc1ccc(-c2noc(C3CCO3)n2)cc1NC(=O)c1cnc2ccccn12 (centres unmarked) [F263]
438 nM	–	Cc1ccc(-c2noc(C3CN(C(=O)OCC(F)(F)F)C3)n2)cc1NC(=O)c1cnc2ccccn12 [F264]
523 nM	–	COC(=O)N1CC(c2nc(-c3ccc(C)c(NC(=O)c4cnc5ccc(CO)cn45)c3)no2)C1 [F266]
650 nM	–	Cc1ccc2ncc(C(=O)Nc3cc(-c4noc(COC5CN(C(=O)OC(C)(C)C)C5)n4)ccc3C)n2c1 [F267]
1010 nM	–	CC(=O)N1CCC[C@@H]1c1nc(-c2ccc(C)c(NC(=O)c3cnc4ccccn34)c2)no1 [F269]
1040 nM	–	Cc1ccc(-c2noc(CNC(=O)CC3CCOCC3)n2)cc1NC(=O)c1cnc2ccccn12 [F270]
1120 nM	–	CCN1CC(c2nc(-c3ccc(C)c(NC(=O)c4cnc5ccccn45)c3)no2)C1 [F271]
1140 nM	–	Cc1ccc(-c2noc(C3C[C@@H](O)CN3S(C)(=O)=O)n2)cc1NC(=O)c1cnc2ccc(F)cn12 (some centres unmarked) [F272]
